# Tests used:
# [1] = target: T1, NAD-dependent protein deacetylase sirtuin-2 (Homo sapiens, UniProt Q8IXJ6); assay: Inhibition of recombinant SIRT2 (unknown origin) using […] as substrate incubated for 4 hrs by homogenous fluorescent deacetylase assay
# T1 sequence (Q8IXJ6 whole entry): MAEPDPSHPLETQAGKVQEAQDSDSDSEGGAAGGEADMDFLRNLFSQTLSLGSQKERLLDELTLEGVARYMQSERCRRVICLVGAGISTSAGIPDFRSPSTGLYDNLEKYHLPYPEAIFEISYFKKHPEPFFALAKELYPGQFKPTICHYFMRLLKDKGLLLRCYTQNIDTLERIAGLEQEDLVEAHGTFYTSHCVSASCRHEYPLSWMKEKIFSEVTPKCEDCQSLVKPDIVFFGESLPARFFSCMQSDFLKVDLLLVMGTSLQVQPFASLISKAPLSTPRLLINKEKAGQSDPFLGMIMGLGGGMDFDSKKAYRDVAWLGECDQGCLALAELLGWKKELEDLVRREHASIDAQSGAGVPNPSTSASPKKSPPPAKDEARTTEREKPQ
# [2] = Cytotoxicity against human PDAC cells assessed as cell viability; type: functional, cell-based
IC50 [1] [µM],Compound,IC50 [2] [µM]
1.15,Cc1ccc(C(=O)Nc2ccc(S(=O)(=O)O)c3cc(S(=O)(=O)O)cc(S(=O)(=O)O)c23)cc1NC(=O)c1cccc(NC(=O)Nc2cccc(C(=O)Nc3cc(C(=O)Nc4ccc(S(=O)(=O)O)c5cc(S(=O)(=O)O)cc(S(=O)(=O)O)c45)ccc3C)c2)c1 [SURAMIN],–
–,CCOC(=O)C1=CN(C(=O)c2ccccc2)C=C(C(=O)OCC)C1c1cccc(OC)c1,25.4
